# Experimental data reported in PMC10330721, “Chemo-enzymatic synthesis and biological activity evaluation of propenylbenzene derivatives” (Frontiers in Microbiology, 2023).
# Where two headings read alike, the source gives them in different places.
# Tests used:
# RBCs membrane = experiment: Fluorescence spectroscopy of the RBCs membrane (DPH probe anisotropy); format: cell-based, human; conditions: for Fluorescence anisotropy of the DPH probe: membranes of RBCs, 37 °C; for Change in DPH anisotropy / RBCs membrane fluidity (in words): RBCs, 20, 60 and 100 μM
# Procedure: Using the DPH probe, the anisotropy values of cell membranes of RBCs modified with the test compounds were measured. RBCs for this analysis were prepared according to the method described in subsection 2.5.3. Then, the DPH probe was added to RBCs with a haematocrit of 0.2%. The final concentration of the probe in the sample was 1.3 μM. The mixture was incubated protected from light at 37°C for 30 min. Then, the compounds dissolved in ethanol were added. The compounds were tested at 20, 60, and 100 μM concentrations. Samples with compounds and control samples with alcohol of the appropriate concentration were incubated at 37°C for 1 h. Measurements in triplicate were made in quartz cuvettes using a CARY Eclipse fluorimeter (Varian, San Diego, CA, United States) at 37°C. The excitation wavelength for the DPH probe is λexc = 360 nm and the emission wavelength is λem = 426 nm.
# MG63 cells = experiment: Resazurin-based viability assay; format: cell-based, human; conditions: for Effect on MG63 proliferation / viability (in words): 24 h, 1, 50 and 200 μg/mL
# Procedure: (§1) HepG2 cells were cultured in Dulbecco’s modified Eagle’s Medium - low glucose (Merck) supplemented with 10% foetal bovine serum (FBS) (Merck). Caco-2 cells were cultured in Dulbecco’s modified Eagle’s medium - high glucose (Merck) supplemented with 10% FBS, 2% HEPES buffer (Thermo Fisher Scientific, Warszawa, Poland), 1% Penicillin–Streptomycin-Amphotericin B Solution (100×, Merck), 1% MEM solution (100×, Thermo Fisher Scientific), and 1% Gentamycin Solution (10 mg/mL, Merck). MG-63 cells were cultured in Minimum Essential Medium (Merck) supplemented with 10% FBS. All cells were cultured in an atmosphere of 5% CO2 at 37°C.
# The tested compounds were dissolved in ethanol at 10 mg/mL. The concentrations were then adjusted to 1, 50, and 200 μg/mL in culture medium. Four controls were prepared: no ethanol added, and 0.01, 0.5, and 2% EtOH. The cells were treated with the compounds for 24 h. […] The culture medium was replaced with medium containing 10% resazurin dye. The cells were incubated at 37°C in an atmosphere of 5% CO2 for 2 h. Absorbance levels were measured spectrophotometrically (Epoch) at a wavelengths of 600 nm for resazurin and 690 nm as a reference.
# C. albicans ATTC18804 = test system: C. albicans ATTC18804; design: method as in Kubo et al., 1993; conditions: C. albicans ATTC18804 ref Kubo et al., 1993; cited from earlier work
# [1] = Haemolytic activity assay; format: cell-based; conditions: human red blood cells (RBCs) from healthy donors, 37°C, read-out: Percentage of haemolysis
# Procedure: This test is based on comparison of the cytotoxicity of all tested compounds in human red blood cells (RBCs) with that in a control group. RBCs for this method were obtained from a blood center from examined and healthy donors. The compounds were tested at 10, 20, 40, 60, 80, and 100 μM concentrations. The control sample contained only ethanol in the same volume as the test samples. […] The samples were incubated at 37°C for 1 h. Then, the absorbance at 540 nm was measured using a UV–Vis spectrophotometer (Specord 40, Analytik Jena, Jena, Germany). The haemolytic activity of the compounds was determined as the ratio of the absorbance of haemoglobin in the test samples to that in completely haemolyzed cells multiplied by 100%.
# C. albicans strains = experiment: Fungistatic activity assay, broth microdilution, values given over several strains; format: cell-based, Candida albicans; conditions: Candida albicans, read-out: MIC50 (over all tested strains)
# Procedure: Fungistatic activity was determined using Candida albicans ATCC 90028 from the American Type Culture Collection (ATCC, Manassas, VA, United States), and clinical isolates, C. albicans 636/20, C. albicans 595/20, and C. albicans 38 obtained from Wrocław Medical University, Wrocław, Poland.
# All compounds were tested for biological activity against C. albicans ATTC 90028, C. albicans 636/20, C. albicans 595/20, and C. albicans 38 using the broth microdilution method. YPD medium (20 g glucose, 20 g Bacto Peptone, 10 g yeast extract, and 1 L of distilled water, pH 6.5) was used for the tests. The compound solutions were prepared in DMSO and diluted in YPD to obtain final concentrations in the range of 10–250 μg/mL. One hundred microlitres of each solution was pipetted into the wells of a 96-well microtiter plate. The inoculum was standardized to 0.5 McFarland standard and then diluted to obtain a final suspension with a cell density of 0.5–2.5 × 10^3 CFU/mL. The inoculum size was 100 μL. The positive control comprised DMSO added in the same concentration as the tested compounds in the inoculum, whereas the negative control consisted of DMSO diluted in the broth without the addition of inoculum. The microtiter plates were incubated in a Biosan PST-60 HL Plate Shaker-Thermostat (Riga, Latvia) at 35°C under shaking at 1,000 rpm for 24 h.
# Caco-2 cells = experiment: Resazurin-based viability assay; format: cell-based, human
# Procedure: as §1, with “The human HepG2 and Caco-2 cell lines were obtained from the American Type Culture Collection (HB-8065™ and HTB-37™) and the MG-63 cell line was obtained from the European Collection of Authenticated Cell Cultures (Merck, Poznań, Poland). HepG2” for “HepG2”
# (§2) HepG2, Caco-2, and […] were seeded in 96-well plates at 20,000 cells per well, and MG-63 cells at 10,000 cells per well, as described previously ([Marycz et al., 2012]; [Kornicka et al., 2017]). The tested compounds were dissolved in ethanol at 10 mg/mL. The concentrations were then adjusted to 1, 50, and 200 μg/mL in culture medium. Four controls were prepared: no ethanol added, and 0.01, 0.5, and 2% EtOH. The cells were treated with the compounds for 24 h. Then, cell viability was evaluated using the resazurin-based assay kit (TOX8), as described previously ([Grzesiak et al., 2011]; [Marycz et al., 2018]). The culture medium was replaced with medium containing 10% resazurin dye. The cells were incubated at 37°C in an atmosphere of 5% CO2 for 2 h. Absorbance levels were measured spectrophotometrically (Epoch) at a wavelengths of 600 nm for resazurin and 690 nm as a reference.
# HepG2 cells = experiment: Resazurin-based viability assay; format: cell-based, human; conditions: 24 h, 1 μg/mL
# Procedure: as §1, with “The human HepG2 and Caco-2 cell lines were obtained from the American Type Culture Collection (HB-8065™ and HTB-37™) and the MG-63 cell line was obtained from the European Collection of Authenticated Cell Cultures (Merck, Poznań, Poland). HepG2” for “HepG2”
# as §2
Compound,Fluorescence anisotropy of the DPH probe (RBCs membrane; 20 µM),Fluorescence anisotropy of the DPH probe (RBCs membrane; 60 µM),Fluorescence anisotropy of the DPH probe (RBCs membrane; 100 µM),Effect on MG63 proliferation / viability (in words) (MG63 cells),MIC (C. albicans ATTC18804),"hemolysis at 1 h, 10 µM [1]","hemolysis at 1 h, 20 µM [1]","hemolysis at 1 h, 40 µM [1]","hemolysis at 1 h, 60 µM [1]","hemolysis at 1 h, 80 µM [1]","hemolysis at 1 h, 100 µM [1]",MIC50 (C. albicans strains),Change in DPH anisotropy / RBCs membrane fluidity (in words) (RBCs membrane),"Effect on Caco-2 proliferation / viability (in words) (Caco-2 cells; 24 h, 1, 50 and 200 μg/mL)","MIC50 (C. albicans strains; C. albicans 636/20, 595/20, 38 and ATTC90028)","Effect on MG63 proliferative activity (in words) (MG63 cells; 24 h, 1 μg/mL)","Effect on MG63 proliferative activity / viability (in words) (MG63 cells; 24 h, 50 μg/mL)",Effect on HepG2 proliferative activity (in words) (HepG2 cells),"Effect on Caco-2 proliferative activity (in words) (Caco-2 cells; 24 h, 1 μg/mL)"
"CC=Cc1ccc(OC)c(OC)c1 [4a, 1,2-dimethoxy-4-prop-1-en-1-yl benzene]",0.264 ± 0.004,0.261 ± 0.008,0.269 ± 0.007,promoted MGC63 proliferation,400 µg/mL,1.76 ± 0.152%,1.48 ± 0.173%,1.67 ± 0.195%,1.58 ± 0.18%,2.48 ± 0.152%,1.79 ± 0.159%,39 to 67 µg/mL,,,,,,,
"COc1ccc(C(O)C(C)O)cc1OC (stereo not shown) [4b, 1-(3,4-dimethoxyphenyl)propane-1,2-diol]",0.289 ± 0.004,0.228 ± 0.095,0.290 ± 0.003,,,1.64 ± 0.127%,1.52 ± 0.375%,1.42 ± 0.074%,1.2 ± 0.395%,1.19 ± 0.04%,2.06 ± 0.536%,,increase in anisotropy,strongest inhibition,37 to 63 µg/mL,,,,
"COc1ccc(C(=O)C(C)O)cc1OC (stereo not shown) [4c, 1-(3,4-dimethoxyphenyl)-2-hydroxypropan-1-one]",0.257 ± 0.014,0.243 ± 0.019,0.263 ± 0.008,promoted MGC63 proliferation,,1.483 ± 0.007%,1.93 ± 0.228%,2.1 ± 0.395%,1.77 ± 0.342%,2.02 ± 0.047%,2.445 ± 0.013%,,a decrease in anisotropy,,,,,,
"COc1cc(C(O)C(C)O)ccc1O (stereo not shown) [5b, 1-(4-hydroxy-3-methoxyphenyl)propane-1,2-diol]",0.268 ± 0.025,0.277 ± 0.003,0.272 ± 0.058,suppressed the proliferation,,1.27 ± 0.094%,1.55 ± 0.101%,1.52 ± 0.181%,1.62 ± 0.174%,2.58 ± 0.288%,1.98 ± 0.308%,,,,,induced the proliferative activity,significantly increased cell viability,induced the proliferative activity,induced the proliferative activity
